Data from US20090305259A1, “Early Diagnosis of Congenital Abnormalities in the Offspring of Diabetic Mothers” (YALE UNIVERSITY, priority 2006, published 2009).
Entries after “also recorded” stand apart in the source; their conditions may differ.

Legend:
[1] = tested on: yolk sac vasculogenesis; test: Whole conceptus culture: yolk sac vasculogenesis under hyperglycemia; assay type: cell-based, mouse; details: for rescue of hyperglycemia-arrested yolk sac vascular development (arborization): conceptus culture with 20 mM D-glucose plus agent, PECAM-1 staining
Procedure: Timed pregnant mice are used to harvest 7.5 and 9.5 days post conception (dpc) conceptuses from which yolk sac and hearts are dissected. The atrioventricular canals are isolated for subsequent culture and analysis of the epithelial to mesenchymal transformation that occurs in the formation of the endocardial cushion.
(§1) Conceptuses are cultured for 48 hrs in the presence of rat serum or rat serum+20 mM D-Glucose, or rat serum+20 mM D-Glucose+rVEGF or NO donor or 20 mM mannitol for 48 hrs. At 8.5 dpc the yolk sacs are harvested and analyzed using LC-MS and LC-MS-MS methods as well as by traditional cell and molecular biological methods. At 9.5 dpc atrioventricular (AV) canals are harvested from the conceptuses and cultured for 48 to 72 hrs on collagen gels to allow epithelial-mesenchymal transformation (EMT). The AV canal cultures are analyzed by double or triple label standard and confocal immunofluorescence microscopy, laser dissection capture microscopy followed by Western blotting for protein determination, characterization and localization. The effects of exogenous VEGF-A (1, 10 & 20 ng/ml), Pro- and mature BDNF (1, 25 & 50 ng/ml), NO donor (Noc-18) TIMP-1 and TIMP-2 (1, 25 & 50 ng/ml) on EMT and protein expression, post-translational modification and degradation are assessed.
Using this embryo culture system, groups of ten 7.5 dpc conceptuses were cultured in normoglycemic conditions (5.0 mM D-glucose [control]), hyperglycemic conditions (20 mM D-glucose [HG]), HG+10 pg/ml VEGF A165 (HG+rVEGF) and HG+a slow release NO donor (HG+Noc-18) for 24 hrs. The conceptuses were harvested at 8.5 dpc when their yolk sacs were at the primary capillary plexus stage and beginning to undergo vascular remodeling. Lysates were then prepared for SDS-PAGE, Silver Staining and MS analysis. FIG. 4A depicts PECAM-1 staining of the capillary plexas at 8.5 dpc and illustrates the non-descript vascular plexus observable at this stage of development. […] This is in contrast to LC-MS and LC-MS-MS analyses of these samples (see below).

[2] = tested on: cardiac EMT; details: cardiac A-V canal and outflow tract cultures, 20 mM D-glucose; cited from earlier work
[3] = tested on: NOGO A; test: Western blot of NOGO A in yolk sacs across treatment groups; assay type: cell-based, mouse; details: yolk sac culture, hyperglycemia plus agent, listed as NO donor
Procedure: as §1
(§2) Further, several of these proteins were validated in conceptus culture assays prior to and following VEGF and NO donor rescues using Western blotting, histological and immunolocalization analyses. […] Further, sequestration of Wnt16 (FIG. 11), ADAM 15 (FIG. 12), and NOGO A (FIG. 13) by antibodies directed against them abrogated EMT in cardiac AVC cushion explant cultures. […]

[4] = tested on: ADAM 15; test: Western blot of ADAM 15 in yolk sacs across treatment groups; assay type: cell-based, mouse; details: yolk sac / whole conceptus culture, 20 mM D-glucose plus agent
Procedure: as §1, §2

[5] = tested on: Wnt16; test: Western blot of Wnt16 in yolk sacs across treatment groups; assay type: cell-based, mouse; details: yolk sac / whole conceptus culture, 20 mM D-glucose plus agent
Procedure: as §1, §2

[6] = tested on: developing conceptuses; details: 250 mg/kg prior to mating; fast elimination; cited from earlier work

OC[C@H]1O[C@H](O)[C@H](O)[C@@H](O)[C@@H]1O [alpha-D-glucose]
effect on yolk sac vasculogenesis ([1]; transient (as little as 3 hr) exposure, 20 mM alpha-D-glucose): arrest yolk sac vasculogenesis at the primary capillary plexus stage | effect on cardiac cushion formation [2]: arrested cushion formation

NCCN(CCN)/[N+]([O-])=N/O [NOC-18]
rescue of hyperglycemia-arrested yolk sac vascular development (arborization) [1]: rescue of the hyperglycemic arrest of vascular development; also recorded: restore normal vascular morphology; also recorded: rescue of yolk Sac vascular development | rescue of hyperglycemia-arrested yolk sac vascular development (arborization) ([1]; listed as NO donor): reversed | rescue of hyperglycemia-arrested yolk sac vascular development (arborization) ([1]; listed as NOD): restores vascular arborization | NOGO A expression level (downregulated by hyperglycemia) after treatment [3]: rescued; also recorded: returned to normal levels | ADAM 15 expression level (downregulated by hyperglycemia) after treatment [4]: up-regulated to near normoglycemic levels | ADAM 15 expression level (downregulated by hyperglycemia) after treatment ([4]; listed as NO donor): rescued; also recorded: returned to normal levels | Wnt16 expression level (upregulated by hyperglycemia) after treatment [5]: down-regulated to near normoglycemic levels | Wnt16 expression level (upregulated by hyperglycemia) after treatment ([5]; listed as NO donor): rescued; also recorded: returned to normal levels

CN(N=O)C(=O)N[C@H]1C(O)O[C@H](CO)[C@@H](O)[C@@H]1O (mixture of isomers) [Streptozotocin]
toxic effect on the developing conceptuses [6]: no toxic effect
